Drawing on a melting point compilation (Tetko et al.; mined from patent text by program, amines drawn as free bases though some values may be those of a salt), this text covers melting point for 87 molecules.

As to `CCOC(=O)c1cnc(Nc2ccccc2F)[nH]c1=O`, the melting point (in general, the temperature, or range, at which the solid turns liquid) is 250 to 252 °C.

`C(=NNc1ccccc1)c1ccccn1` registered a melting point of 179 °C.

`CC(C)n1c(=O)n(C(=O)NCC2(O)CCN(CC3(C(=O)O)CCCCC3)CC2)c2ccccc21` yielded a melting point of 184 °C.

`O=C(O)Cc1c(C(=O)c2cccc(Br)c2)[nH]c2cc(Cl)ccc12` returned a melting point of 215 to 218 °C.

As to `CN(CC(=O)O)CC(=O)Nc1cc(Cc2n[nH]c(=O)c3ccccc23)ccc1F`, the melting point lay in the range of 194 to 198 °C.

Consider `C/C=C/c1cc2c(s1)[C@@H](OC(C)=O)[C@H](OC(C)=O)C[C@]2(OC(C)=O)C(=O)OC`, for which the melting point was 140 to 143 °C.

On to `COc1ccc(-c2c(Cl)c(Cn3cnc4ccccc43)nc3sc4c(c23)CCS(=O)C4)cc1` (configuration not stated), for which the melting point was 233 to 235 °C.

With `O=C(O)CC1(c2ccc(Cl)cc2)Oc2ccccc2O1`, the melting point came to 138 °C.

Turning to `COC(=O)c1ccc(C(=O)Nc2ccccc2)cc1`, the melting point lay within 189 to 190 °C.

In turn, `O=C(O)C=Cc1c(-c2ccccc2)nn2ccccc12` displayed a melting point of 153 to 155 °C.

`CC(C)C(O)(C=Cc1ccc([N+](=O)[O-])cc1)CC(=O)OCc1ccccc1` (racemic) showed a melting point of 64 to 65 °C.

As to `CCOC(=O)c1nc2c(=O)[nH]c3cc(C(F)(F)F)ccc3n2c1Cn1cnc(Cl)c1Cl`, the melting point was determined as 240 °C.

In the case of `CC(C)(C)Nc1c(NCc2cc3cc(C#N)ccc3o2)c(=O)c1=O`, the melting point was 299 to 300 °C.

Molecule `Oc1ccc2cc(-c3cnc(Cc4ccccc4)o3)ccc2c1` showed a melting point of 200 to 202 °C.

In turn, `N#CC(O)c1cccc2c(-c3ccccc3)c([N+](=O)[O-])oc12` (configuration not stated) returned a melting point of 137 to 139 °C.

As for `Cc1ccc(S(=O)(=O)c2ccc(C(F)(F)F)cc2NC(=O)N[C@@H](Cc2ccc(NC(=O)c3c(Cl)cccc3Cl)cc2)C(=O)O)cc1`, the melting point worked out at 233 °C.

Regarding `Cc1nnc(NC(=O)c2sccc2S(=O)(=O)Nc2onc(C)c2Cl)s1`, the melting point is 192 to 194 °C.

As for `COC(=O)c1cc(C=O)ccc1[N+](=O)[O-]`, the melting point was determined as 76.7 °C.

The molecule `CCOC(=O)c1cn(CCCl)c2nc(-c3ccncc3)c(F)cc2c1=O` came in with a melting point of 192 to 194 °C.

For `COC(=O)C(=O)c1cn(C)c2cc(-c3ccc(C(F)(F)F)cc3)ccc12`, the melting point fell in the range of 199 to 200 °C.

In turn, `ClCc1nc2sc3c(c2c(-c2ccc(Cl)cc2)c1Cl)CCN(Cc1ccccc1)C3` displayed a melting point of 204 to 205 °C.

`O=C(NCc1ccccn1)c1ccc2cnccc2n1` displayed a melting point of 123 to 125 °C.

The molecule `Cc1cccc(N=C(N)N(C)C)c1N1CCOCC1` had a melting point of 100 °C.

In the case of `CCN(CC)C(=O)CCc1nc(-c2cccc(C(F)(F)F)c2)nc2ccccc12`, the melting point is 115 °C.

`CCCn1c(=O)n(C)c(=O)c2[nH]c(-c3cc(S(=O)(=O)NCCNC)ccc3OCC)c(Cl)c21` registered a melting point of 226 °C.

`CCOC(=O)CCN(Cc1ccc(OC)c(OC)c1)C(=O)CN(C)C(=O)Cc1ccc(NC(=O)Nc2ccccc2C)c(OC)c1` showed a melting point of 97 to 105 °C.

Consider `COc1ccc(C[C@@H](NC(=O)OCc2ccccc2)[C@H](O)C(=O)O)cc1`, for which the melting point is 160 to 162 °C.

In turn, `COc1ccc(F)cc1C(C)(C)CC(O)(CN1CC(=O)Nc2ccccc21)C(F)(F)F` (configuration not stated) gave a melting point of 69 to 71 °C.

For `CCOC(=O)C(O)c1ccccc1Nc1c(Cl)cccc1Cl` (configuration not stated), the melting point was 155 to 156 °C.

The molecule `COc1ccc(-c2cc(C(N)=O)c(=O)n(CC3CC3)n2)cc1` returned a melting point of 182 to 183 °C.

As for `NC(CN1C(=O)c2ccccc2C1=O)=NO`, the melting point is 192 to 195 °C.

Molecule `CCn1c(=O)c(C#N)c(N2CCCC2)c2ccc(C)nc21` had a melting point of 211 to 213 °C.

As for `CC(C)OC(=O)c1cc(-n2c(=O)c(F)c(CF)n(C)c2=O)c(F)cc1Cl`, the melting point fell in the range of 85 to 89 °C.

Molecule `COC(=O)NC=Cc1ccc(O)cc1` showed a melting point of 169 to 170 °C.

Regarding `C[C@H]1Cn2c(=O)[nH]c3cccc(c32)CN1`, the melting point was found to be 190 °C.

In turn, `CC1CCn2c(c(-c3ccccc3)c3cccnc3c2=O)C(=O)N(Cc2cc(C(F)(F)F)cc(C(F)(F)F)c2)C1` (racemic) displayed a melting point of 257 to 258 °C.

Molecule `CC1(C(=O)C(C(O)C(Cl)(Cl)CCl)n2cncn2)CC1` (configuration not stated) gave a melting point of 182 to 186 °C.

With `CCOC(=O)Nc1c(C)c(C)c2c(c1C)CC(C)(C)O2`, the melting point was in the range of 102 to 104 °C.

For the molecule `CCCc1nc2c(N)nc3ccccc3c2n1CC(N)=O`, the melting point is > 300 °C.

`COCCN1CCN(C)c2cc(Nc3ncc(Cl)c(N[C@@H]4CCCC[C@H]4NS(C)(=O)=O)n3)c(OC)cc2C1` showed a melting point of 89 °C.

`Cc1nn(-c2ccc(C(F)(F)F)cn2)cc1CO` registered a melting point of 157 to 158 °C.

In the case of `Cc1scc2c1N(C(=O)NCCN1CCC(CCCN(C)C)CC1)c1ccccc1NC2=O`, the melting point was > 300 °C.

Molecule `O=Cc1cc(-n2nnnc2C(F)(F)F)ccc1OC(F)(F)F` came in with a melting point of 40 to 42 °C.

Take `COc1ccc(C(=O)Nc2cc(NC(=O)c3cccc(N(C)C)c3)ccc2F)cc1OC`: the melting point was in the range of 187 to 188 °C.

Turning to `CC(=O)N1CCC(CCC(=O)c2cc3c4c(c2)CCN4C(=O)CC3)CC1`, the melting point was 157 to 159 °C.

As for `COc1ccc(-n2nc(Cl)cc2-c2ccc(OCCO)cc2)cn1`, the melting point is 136 to 138 °C.

Regarding `CN(C)CCCC(=O)N1CCC(C2c3ncc(Br)cc3CCc3cc(Cl)cc(Br)c32)CC1` (single isomer, unassigned; (+)), the melting point was 78 to 80 °C.

Molecule `COc1c(O)c(C=O)cc2ccoc12` yielded a melting point of 60 to 62 °C.

The molecule `Cc1ccc(S(=O)(=O)OCC2COc3ccc4nc(C)c(C)nc4c3O2)cc1` (configuration not stated) came in with a melting point of 153 to 155 °C.

`COC(=O)[C@H](Cc1c[nH]c2ccccc12)N(CCN(CC(=O)OC(C)(C)C)CC(=O)OC(C)(C)C)CCN(CC(=O)OC(C)(C)C)CC(=O)OC(C)(C)C` had a melting point of 71 °C.

Turning to `COCCOc1cc(CCC(=O)O)n(Cc2ccc(Cl)cc2Cl)n1`, the melting point was in the range of 111 to 113 °C.

`FC(F)(F)c1cc2ccccc2n1Cc1ccccc1` returned a melting point of 20 °C.

Molecule `CON=C(C(C)=C(ON)c1ccccc1C(=NOC)C(=O)OC)c1ccc(Cl)cc1` showed a melting point of 115 to 117 °C.

With `O=c1occc2ccc(Cl)cc12`, the melting point fell in the range of 110 to 111 °C.

The molecule `CC(C)CN1C(=O)CC(C)(C)CC1=O` displayed a melting point of 48 to 52 °C.

In the case of `CN1COCNC1=N[N+](=O)[O-]`, the melting point was 137 to 139 °C.

The molecule `CC(C)c1nn(-c2ccc(F)cn2)cc1CCCO` registered a melting point of 78 to 79 °C.

The molecule `O=C(O)CCCc1c(-c2ccc(F)cc2)[nH]c2ccc(-c3ccc(O)cc3)cc12` had a melting point of 180 to 183 °C.

`CC(=O)Nc1ccc(-c2cc(-c3nc4ccccc4c(=O)n3-c3ccccc3)sc2N2CCOCC2)cc1`: the melting point was > 275 °C.

`CC(c1cc(F)cc(Br)c1O)c1cc(Cl)cc(C(C)c2cc(F)cc(Br)c2O)c1O` (configuration not stated) showed a melting point of 136 °C.

For the molecule `COc1cc2c(cc1OC)-c1cc(OC)c(OC)c3c1C(C2)CN(C)C3` (configuration not stated), the melting point lay in the range of 170 to 177 °C.

Take `CCC(=O)NC(Cc1ccccc1)c1ccccn1` (configuration not stated): the melting point was in the range of 91 to 93 °C.

In turn, `Clc1ccc2oc(-c3ccc(N4CCCCC4)cc3)nc2c1` registered a melting point of 162 to 164 °C.

`CCOC(=O)CCc1cn(Cc2ccc(OC)c(OCc3nc(-c4ccccc4)oc3C)c2)nc1OCC` had a melting point of 109 to 110 °C.

`COc1cc2c(cc1OC)CNCC2` registered a melting point of 139 to 141 °C.

`COc1ccc(N2CCN(c3ccc(-n4cn[nH]c4=O)cc3)CC2)cc1` displayed a melting point of 300 °C.

In the case of `Cc1ccccc1C(=O)Nc1ccc(C(=O)N2CCCCc3sccc32)cc1`, the melting point lay within 181 to 182 °C.

In turn, `CCCCc1oc2ccccc2c1/C=N/OCCCOc1ccc(C(=O)O)c(NC(=O)c2ccc(C(C)(C)C)cc2)c1` yielded a melting point of 181 to 182 °C.

`CCOC(=O)C1COc2c(C=O)cc(Cl)c(Cl)c2O1` (configuration not stated) returned a melting point of 110 to 113 °C.

The molecule `CC(=O)NCCNC1=NS(=O)(=O)c2cc(Cl)ccc2N1` returned a melting point of 295 to 297 °C.

With `CCOc1c(C)c(N2CCN(c3ccc(OC)c(C)c3)CC2)c(C)c2c1OC(C)C2` (configuration not stated), the melting point lay in the range of 80 to 83 °C.

Turning to `C=C(Sc1ccc(Br)cc1)S(=O)(=O)c1ccc(Cl)cc1`, the melting point fell in the range of 45 to 95 °C.

`CC(=O)OCCc1nc2c(N)nc3ccccc3c2n1CC(C)C` gave a melting point of 187 to 189 °C.

For `FC(F)(F)c1ccc(COc2ccnc(CSc3nc4cscc4[nH]3)c2)cc1`, the melting point was 141 to 143 °C.

`CNC1CCN(c2c(F)c(N)c3c(=O)c(C(=O)O)cn(C4CC4)c3c2C)C1` (configuration not stated) displayed a melting point of 200 to 202 °C.

Molecule `CC1=CC(=O)C=C2CC(C)C3C4CCC(=O)C4(C)CCC3C12C` (configuration not stated) came in with a melting point of 148 to 151 °C.

In the case of `Oc1nccc2ccncc12`, the melting point lay in the range of 260 to 262 °C.

As to `C=CCOC1=NC(OCC)=NS(=O)(=O)N1C`, the melting point lay in the range of 56 to 60 °C.

Regarding `Nc1ncc(C#Cc2ccc(Cl)cc2)c(NCCOCCO)n1`, the melting point lay within 176 to 180 °C.

`COC(=O)CC(=O)CS(=O)(=O)C(c1ccc(Cl)cc1)c1ccc(Cl)cc1` returned a melting point of 76 to 78 °C.

In the case of `Oc1cccc(C(O)(c2nccs2)C(F)(F)F)c1` (configuration not stated), the melting point was in the range of 94 to 96 °C.

Turning to `CC12CCC(C1)C1(C)Oc3ccc(C(=O)COc4ccc(C(=O)O)c(O)c4)cc3C21C` (configuration not stated), the melting point fell in the range of 186 to 188 °C.

`CC(C)(C)OC(=O)NCCc1ccnc(-c2nc(=O)c3ccccc3s2)c1` came in with a melting point of 160 to 161 °C.

Molecule `O=c1c2ncn3c2n(c(=O)n1Cc1ccccc1)CC=C3c1cccc(C(F)(F)F)c1` had a melting point of 198 to 200 °C.

Molecule `CCOc1ccc(Cc2cn(C3OC(COC(C)=O)C(OC(C)=O)C(OC(C)=O)C3OC(C)=O)c3cccc(Cl)c23)cc1` (configuration not stated) registered a melting point of 166 to 169 °C.

In the case of `COCCOCc1ccc(-c2ccc(C(=O)Nc3ccc(OC)c(N4CCN(C)CC4)c3)cc2)c(C)c1`, the melting point lay within 147 to 148 °C.

`OC1CSC(Oc2cc(-c3ccncc3)cc(F)c2F)C(O)C1O` (configuration not stated) displayed a melting point of 151 °C.
